Assay results from patent publication US8445291B2, “Method for detecting target substance, and tag, DNA, vector, probe and detection kit for use therewith” (National University Corporation Tokyo Medical and Dental …, priority 2007, dated 2013).

What was measured:
[1] = Circular dichroism spectroscopy of tag peptide, probe peptide and tag-probe mixture; type: physicochemical; conditions: for probe peptides that formed an α-helix structure: probe peptide alone; for tag peptides that formed an α-helix structure: tag peptide alone
Protocol: The circular dichroism spectrum of the tag polypeptides and the probe polypeptides of Examples 1 to 3 were measured.
The structures of the tag peptide, the probe peptide and the tag-probe complex were analyzed by circular dichroism spectroscopy.
In each of FIGS. 3A to 3C, the horizontal axis represents wavelength used for measurement whereas the vertical axis represents molar residue ellipticity.

probe peptide [2] = assay: Fluorescence titration of probe peptide with tag peptide (HEPES buffer), incl. Job's plot; type: binding; conditions: for fluorescence wavelength ultimately shifted to on addition of tag peptide: 0.5 μM probe peptide, 0.1 to 2.0 equivalents of tag peptide; for Kd: tag peptide to probe peptide, theoretical formula assuming 1 to 1 interaction, fluorescence at 505 nm, read-out: dissociation constant Kd
Protocol: Fluorescence titration was performed for the tag polypeptides and the probe polypeptides of Examples 1 to 3.
In the fluorescence titration, the rate of change of the fluorescence intensity at 505 nm was plotted against the concentration of the tag peptide and the dissociation constant was calculated from a theoretical formula assuming 1 to 1 binding of the tag peptide to the probe peptide.
In Example 1, the fluorescence intensity at 505 nm in the presence of 1 equivalent of tag peptide was 18 times as high as that measured in the absence of the tag peptide.
Also in the fluorescence titration, with the total concentration of the tag peptide and the probe peptide being fixed at 1.0 μM, the ratio of the respective concentrations of the tag peptide and the probe peptide was varied and the fluorescence intensity at 505 nm was measured. The measured fluorescence intensity was plotted against the ratio of the tag peptide concentration to the total concentration of the tag peptide and the probe peptide and was analyzed by the theoretical formula assuming 1 to 1 binding of the tag peptide to the probe peptide.

[3] = system: fused protein of DsRed and PKC having at its N terminal end a tag polypeptide of sequence (A); assay: Imaging of PKC in cytoplasm of CHO.K1 cells through formation of tag-probe complex (observation of NBD); type: cell-based
Protocol: CHO.K1 cells expressing a fused protein of DsRed and PKC having at its N terminal end a tag polypeptide of sequence (A) as indicated below were prepared using Lipofectamin LTX (Invitrogen).
Subsequently, a permeabilization buffer (20 mM Hepes, pH 7.4, 140 mM KCl, 50 μg/mL saponin, 5 mM oxalic acid) was added to the thus-prepared CHO.K1 cells. After left to stand on ice for 10 min, the cells were washed with PBS, followed by incubating on ice for 20 min in PBS. Thereafter, the cells were incubated in PBS at room temperature for 2 min and then 37° C. for 2 min. Further, the cells were incubated at 37° C. for 30 min in a conditioned medium (Ham's F12) to which a probe indicated by sequence (B) (probe concentration: 1 μM (Final conc.)) had been added.
The medium was changed to a DMEM with no phenol red, and then, the cells were observed by a fluorescence microscope (IX81 (Olympus), objective lens: 20 times) at predetermined emission wavelength (490 nm to 510 nm).
(§1) Separately, before treated with the permeabilization buffer, the above-prepared CHO.K1 cells were treated for 10 min with 10 mM DMSO containing PDBu (phorbol 12,13 dibutyrate; final concentration: 10 μM). The cells were observed by the fluorescence microscope similar to the above.

[4] = system: fused protein of DsRed and PKC having at its N terminal end a tag polypeptide indicated by sequence (A); assay: Localization of PKC in cytoplasm (DsRed fluorescence); type: cell-based; conditions: CHO.K1 cells treated for 10 min, final concentration 10 μM; 515 nm to 560 nm
Protocol: as §1
The following was used as a control; a group which was not treated with PDBu, and CHO.K1 cells to which only DIC was introduced (note that DIC is a vector used for introducing into cells the above-mentioned fused protein of DsRed and PKC having at its N terminal end a tag polypeptide indicated by sequence (A). The cells were observed as mentioned above at predetermined wavelength (515 nm to 560 nm). The results are shown in FIG. 11.

[5] = system: tag peptide represented by structural formula (8); assay: Crosslink reaction of chloroacetylated probe peptide with tag peptide; type: biochemical; conditions: 10 minutes after start, 1.0 μM tag and 1.0 μM probe, 25° C., pH 7.2
Protocol: The probe peptide for crosslink reaction obtained in Example 7 was used to perform a crosslink reaction.
The probe peptide was crosslinked to a tag peptide represented by the following structural formula (8). The tag polypeptide is identical to that used in Example 1.
To a 1.0 μM tag peptide solution (50 mM HEPES buffer (pH 7.2, 10 mM NaCl)), the probe peptide was added to a concentration of 1.0 μM and the reaction was carried out at 25° C.-1 mL samples were collected from the reaction mixture after 1, 5, 10, 15, 20 and 30 minutes. 1 mL of a 10% aqueous acetic acid solution was added to each sample to quench the reaction. The samples were analyzed by HPLC using a C18 reversed-phase analytical column (4.6×250 mm). The crosslinked product was identified by ESI-TOF MS. The yield of the reaction was calculated from the peak area ratio of HPLC.
In FIG. 10, the horizontal axis represents elapsed time after addition of the probe peptide whereas the vertical axis represents the yield of the crosslink reaction.

probe peptide [6] = assay: Fluorescence titration in cell lysate; type: binding; conditions: HeLa cell lysate, 0.1 to 4.0 equivalents of tag peptide
Protocol: Fluorescence titration was performed for the tag polypeptides and the robe polypeptides of Example 1 in a cell lysate.
10 mL of a HeLa cell culture solution containing 1.0×10^6 cells/mL were dispensed in a centrifugal tube and the cells were centrifuged for 5 minutes at 1000 rpm to obtain a pellet of HeLa cells. The pellet was dispersed in 1 mL HEPES buffer and the dispersion was sonicated for 10 minutes. Subsequently, the dispersion was filtered through a membrane filter to remove undesired materials and thus give a cell lysate. The probe peptide was dissolved in the cell lysate to a concentration of […]. To this solution, a tag peptide solution was added dropwise until the solution contained 0.1 to 4.0 equivalents of the tag peptide. The resulting solution was subjected to fluorescence spectroscopy.
In FIG. 9, the horizontal axis represents fluorescence wavelength whereas the vertical axis represents fluorescence intensity

probe peptides that formed an α-helix structure [1] [%] | tag peptides that formed an α-helix structure [1] [%] | tags and probes that formed an α-helix structure in the tag-probe mixture [1] [%] | Kd (probe peptide [2]) [µM] | Compound | fluorescence wavelength ultimately shifted to on addition of tag peptide (probe peptide [2]) [nm] | localization of NBD-derived fluorescence ([3]; CHO.K1 cells treated for 10 min, final concentration 10 μM) | localization of DsRed-derived fluorescence [4] | yield of the crosslink reaction [5] | NBD-derived fluorescence in cells ([3]; 1 μM probe, permeabilized CHO.K1 cells, around 510 nm) | spectral changes of probe peptide as tag peptide was added (probe peptide [6]) | fluorescence intensity at 505 nm relative to that measured in the absence of the tag peptide (probe peptide [2]; in the presence of 1 equivalent of tag peptide) [times] | comparison of fluorescence intensity among Examples 1 to 3 (probe peptide [2]; overlapped spectra of highest peaks, FIG. 5)
53 | 81 | 78 | 0.0243 | ALKKELEALKKELEALKKELAGGCGGALEKELEALEKELEALEKELA [Example 2] | 516 |  |  |  |  |  |  | 
 |  |  |  | CCCC(=O)O[C@@H]1[C@@H](C)[C@@]2(O)[C@@H](C=C(CO)C[C@]3(O)C(=O)C(C)=C[C@@H]23)[C@@H]2C(C)(C)[C@]12OC(=O)CCC [PDBu, phorbol 12,13 dibutyrate, reference compound] |  | locally observed | locally observed |  |  |  |  | 
 |  |  |  | ClAc-{Gly}{Ala-Leu-Lys-Lys-Lys-Leu-Glu}{Ala-Leu-Lys-Lys-Lys-Dap(NBD)-Glu}{Ala-Leu-Lys-Lys-Lys-Leu-Ala} [Example 7] |  |  |  | at least 80% | increase in fluorescence intensity |  |  | 
53 | 18 | 41 | 0.755 | ALKKELEAGKKELEALKKELAGGCGGALEKELEALEKEGEALEKELA [Example 3] | 526 |  |  |  |  |  |  | 

Compound | probe peptides that formed an α-helix structure [1] [%] | tag peptides that formed an α-helix structure [1] [%] | tags and probes that formed an α-helix structure in the tag-probe mixture [1] [%] | Kd (probe peptide [2]) [µM] | fluorescence wavelength ultimately shifted to on addition of tag peptide (probe peptide [2]) [nm] | localization of NBD-derived fluorescence ([3]; CHO.K1 cells treated for 10 min, final concentration 10 μM) | localization of DsRed-derived fluorescence [4] | yield of the crosslink reaction [5] | NBD-derived fluorescence in cells ([3]; 1 μM probe, permeabilized CHO.K1 cells, around 510 nm) | spectral changes of probe peptide as tag peptide was added (probe peptide [6]) | fluorescence intensity at 505 nm relative to that measured in the absence of the tag peptide (probe peptide [2]; in the presence of 1 equivalent of tag peptide) [times] | comparison of fluorescence intensity among Examples 1 to 3 (probe peptide [2]; overlapped spectra of highest peaks, FIG. 5)
ALKKELEAAKKELEALKKELAGGCGGALEKELEALEKEAEALEKELA [Example 1] | 53 | 58 | 71 | 0.0175 | 505 |  |  |  |  | substantially the same spectral changes as in HEPES buffer | 18 | highest fluorescence intensity
